Measurements taken from patent US11730717B1, “Melanin-inspired antimicrobial” (The Board of Regents for the Oklahoma Agricultural and …, priority 2020, dated 2023).
≈ marks a conversion by molar mass, not a printed value.

What was measured:
[1] = system: Candida albicans strain SC5314; experiment: Antifungal MIC assay; type: cell-based; conditions: 35° C., 48 hrs, RPMI with MOPS
Protocol: (§1) Cryptococcus neoformans serotype A strain H99 as well as Candida ablicans strain SC5314, were readily available in the lab. The stock of cells is stored at −80° C. to preserve the fungi and prevent contamination. The cells were grown and maintained in yeast extract-peptone-dextrose (YPD) media (Difco). Cryptococcus or Candida cells were incubated in YPD broth for 18 hrs at 30° C., in a shaking incubator. After the incubation period, they were washed three times in sterile phosphate-buffered saline (PBS) to remove all remaining residue of YPD. The cells were then quantified by using trypan blue dye exclusion in a hemocytometer.
(§2) C. albicans were suspended in RPMI with MOPS, 0.165M, at a concentration of 0.5×10^3 cells/mL. RPMI Mops media was added to a 96-well plate in a volume of 100 μL to every well, with the exception of column 1. An additional 80 μL of RPMI MOPS was added to column 4 for a total of 180 μL/per well. EIPE-1 was added to columns 2 and 4 with a volume of 20 μL at a concentration of 1 mg/mL. Contents were mixed, then serially diluted 100 μL down the plate until column 11. The last 100 μL was discarded, leaving column 12 blank. C. albicans was added at a volume of 100 μL per well from column 4 to column 12, so the final volume of the wells was 200 μL. Plates were incubated at 35° C. in a humid incubator for 48 hrs.

[2] = system: Cryptococcus neoformans serotype A strain H99; experiment: Antifungal MIC assay; type: cell-based
Protocol: as §1
as §2, with “neoformans” for “albicans”, “MOPS” for “Mops”, “well. Amphotericin B or” for “well.”

[3] = system: methicillin resistant Staphylococcus aureus (MRSA) clinical isolate; experiment: MIC by broth microdilution; type: cell-based; conditions: clinical isolate of MRSA from an adult CF patient; broth culture, 18 h at 37° C.
Protocol: The methicillin resistant Staphylococcus aureus (MRSA) and Pseudomonas aeruginosa (PA) strains used in this study are clinical isolates obtained from an adult CF patient at the Cystic Fibrosis Clinic at the OU Children's Hospital (Oklahoma City, Okla.). Escherichia coli (E. coli) and Enterococcus faecalis (E. faecalis) were obtained from American Type Culture Collection (ATCC). The strains were grown overnight with shaking at 37° C. (220 RPM) in 15 mL of Luria-Bertani (LB) broth. The overnight culture was sub-cultured the next day before use for the MIC experiments. All sub-cultures consisted of 1 mL of the overnight culture, mixed with 10 mL of Mueller Hinton broth. The working stock of the EIPE-1 and DBI was prepared by dissolving 1 mg of each in 1 mL of DMSO.
The minimum inhibitory concentrations (MICs) were determined by the broth microdilution method, following the guidelines of the Clinical and Laboratory Standards Institute (CLSI). Two-fold serial dilutions of EIPE-1, DBI, and Arm (starting with 1 mg/mL) were prepared in a 100 μL volume in 96-well microtiter plates. The dilution series included DMSO as a negative control. The bacterial culture […] was normalized to an OD600 of 0.2 and was then added to each well. Plates were incubated with shaking at 220 RPM at 37° C., and the MIC was determined based on the lowest concentration at which no visible growth of the bacterial isolate was observed.
In order to determine the MIC of EIPE-1 on MRSA, a culture of MRSA was grown overnight in Mueller Hinton broth (MHB) at 37° C., sub-cultured by a 1/100 dilution into MHB and dispensed into a 96 well culture block (900 μL of diluted culture in each well). To each well either DMSO or a serial dilution of EIPE-1 was added, then the culture was grown for 18 h at 37° C. The next day each well was tested for either growth or inhibition of growth by measuring of the OD^600 of the resulting culture. […] For comparison, the MIC of EIPE-1 was also determined against E. faecalis (8 μg/mL, 9 μM), confirming activity against Gram-positive bacteria.

MRSA [4] = experiment: Live/Dead staining and fluorescent microscopy; type: cell-based, Staphylococcus aureus; conditions: 16 μg/mL, 17 μM, 30 minutes; Syto 9 and propidium iodide
Protocol: MRSA was grown overnight in 10 mL of LB broth, sub-cultured (5 mL of overnight culture added to 20 mL LB) and grown for 3 h. Bacterial culture (150 μL) were removed and transferred to a 1.5 mL centrifuge tube, which was treated with DMSO, EIPE-1 (0.01 mg/mL) or DBI (0.01 mg/mL) for 30 minutes. Equal amounts of the two dyes (SYTO 9 dye, 3.34 mM in DMSO), and propidium iodide (20 mM in DMSO) were mixed. Then 0.5 μL of the dye mixture was added to each tube of treated MRSA cultures. Wet mounts were prepared on glass slides for imaging live and dead MRSA, and Differential Interference Contrast (DIC) images were obtained using a Leica DMI600B fluorescent microscope. To determine the percentage of bacteria alive and dead, the total bacteria in each condition were counted in 20 fields of view and graphed using Prism 5.0.
To address MRSA viability in response to EIPE-1 treatment, a Live/Dead staining and microscopy was utilized. MRSA was treated with either DBI or EIPE-1 (16 μg/mL, 17 μM each) for 30 minutes (DMSO was used as a negative solvent control) and then stained with the dyes, Syto™ 9 and propidium iodide.

MRSA [5] = experiment: Recoverable CFU after exposure to DBI; type: cell-based, Staphylococcus aureus; conditions: MRSA after 4 h of growth with DBI; DMSO control average 1.78×10^8
Protocol: To determine CFUs of PA and MRSA after exposure to DMSO, DBI, EIPE-1, Gentamicin or Methicillin, 10-fold serial dilutions were prepared in 96-well micro plates using multichannel pipettes. For each dilution, 25 ptL of each sample was pipetted onto a plate containing agar medium and incubated for 18 h at 37° C. The number of colonies for each dilution were counted and used to back calculate the number of bacteria per mL (CFU/mL) in each original bacterial culture.
After 4 h of growth, the resulting cultures were plated onto Mannitol Salts Agar (MSA). Decreased bacterial growth and decreased fermentation of the Mannitol (retention of the reddish hue of the MSA plate) could be seen in the MRSA culture exposed to DBI (FIG. 1A) which was confirmed with decreased recoverable CFUs (FIGS. 1B and 1C).

HeLa cells = experiment: Cytotoxicity, LDH leakage assay; type: cell-based; conditions: 24-hour exposure, 250 μg/mL (610 μM)
Protocol: HeLa cells were cultured in 96-well plates at 37° C. and 5% CO2 in Roswell Park Memorial Institute (RMPI) 1640 medium with 5% Fetal Bovine Serum (FBS). Once HeLa cells reached 95% confluency, the media was replaced with media containing various concentrations of EIPE-1, DBI or DMSO for 24 hours. Cell cytotoxicity was measured using the lactate dehydrogenase (LDH) leakage assay. Results were compared to maximum values of lysed cells in control wells and were graphed as percent relative cytotoxicity using Prism 5.0.
Host cell cytotoxicity against HeLa cells was examined for both DBI and EIPE-1 (FIG. 2B). LDH release was examined after 24-hour exposure to varying concentrations of DBI, DMSO and EIPE-1. […] Thus, EIPE-1 is relatively safe to use with respect to eukaryotic cells.

MRSA [6] = experiment: Kirby-Bauer disc diffusion assay; type: cell-based, Staphylococcus aureus
Protocol: The susceptibility of MRSA to EIPE-1 was determined by the Kirby-Bauer disc diffusion method. Using a cotton swab applicator, a lawn of the S. aureus clinical isolate was placed onto Mueller Hinton agar plates to cover the entire surface of the plate. Filter discs (size=6 mm) were added onto the bacterial lawn. EIPE-1, DBI, and DMSO (10 μL each) were then added onto the filter discs.
The efficacy of compound EIPE-1 was tested by the Kirby-Bauer disc assay. The Kirby-Bauer disc assay assesses the sensitivity of bacteria to antimicrobial agents. If the bacteria are sensitive to the antimicrobial being tested, then a zone of inhibition of bacterial growth is seen around the filter disc containing the antimicrobial. The Kirby-Bauer disc assay was used to test the antimicrobial efficacy of EIPE-1 against MRSA. EIPE-1 was reconstituted at 1 mg/mL in DMSO and serially diluted (10^−1 to 10^−5) after which 10 μL of each dilution (and DMSO as a solvent control) was added to a separate disc on an LB plate inoculated with a lawn of bacteria. The plates were incubated at 37° C. for 24 h, and the resulting radii zone sizes around each disc were then measured.

**Q.** Which results are given for `C[C@@H]1[C@H](O)[C@@H](C)/C=C/C=C/C=C/C=C/C=C/C=C/C=C/[C@H](O[C@@H]2O[C@H](C)[C@@H](O)[C@H](N)[C@@H]2O)C[C@@H]2O[C@](O)(C[C@@H](O)C[C@@H](O)[C@H](O)CC[C@@H](O)C[C@@H](O)CC(=O)O[C@H]1C)C[C@H](O)[C@H]2C(=O)O` [Amphotericin B, reference compound]?
**A.** Minimum inhibitory concentration (MIC) for the isolate of C. albicans [1]: 0.5606 ± 0.1219 µg/mL; Minimum inhibitory concentration (MIC) for the isolate of C. neoformans ([2]; 35° C., 48 hrs, RPMI with MOPS): 0.6825 ± 0.2925 µg·mL; minimum inhibitory concentration average, C. neoformans ([2]; across four experiments): 0.6 µg/mL (≈ 0.649 µM)

**Q.** How did the “minimum inhibitory concentration (MIC)” value [3] turn out when `COC(=O)c1cc2c(Br)c(OC)c(OC)c(Br)c2n1C` [DBI, methyl 4,7-dibromo-5,6-dimethoxy-1-methyl-1H-indole-2-carboxylate] was run?
**A.** Its value is “could not be determined”.

**Q.** What about the “Live/Dead staining (green = intact membrane, red = damaged membrane)” value (MRSA [4]) of the same molecule?
**A.** The value was “mostly stained green”.

**Q.** And the “recoverable CFUs (average)” value (MRSA [5])?
**A.** The value was 1.19×10^7 CFU/mL.

**Q.** And the “cytotoxicity (LDH release)” value (HeLa cells)?
**A.** The value was 30%.

**Q.** `CN(C)CCCOc1ccc(I)cc1` [arms] was tested. Which “antimicrobial activity independent of the DBI core” value (MRSA [6]) did it give?
**A.** Its value is “did not exhibit any antimicrobial activity”.
